US20230143604A1, “QW DOSING OF GIP RECEPTOR AGONIST PEPTIDE COMPOUNDS AND USES THEREOF” (TAKEDA PHARMACEUTICAL COMPANY LIMITED, priority 2020, published 2023)
Starred links: 1 amine or outer side, 2 acyl side, 3 side chain; linkers in the order of their positions; H or OH if unused. Non-standard residues stand in square brackets, D forms with d. Residues, ends and D or L forms follow the SMILES beside them. Groups on a side chain read outwards from the residue. *: point of attachment. C18 diacid = O=C(O)CCCCCCCCCCCCCCCCC(=O)*; γGlu = O=C(O)[C@H](CCC(=O)[*:2])N[*:1]; NMeY = CN[C@@H](Cc1ccc(O)cc1)C(=O)O; AEEA = NCCOCCOCC(=O)O; Aib = CC(C)(N)C(=O)O

Assay: Solubility in phosphate buffer pH 7.4
Outline: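 Solubility at pH 7.4 determined by stepwise addition of 200 mM phosphate buffer in 100 μL increments to 3 mg peptide, mixing briefly each time, until no insoluble material remained, then measured by liquid chromatography.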

Compound | solubility (pH 7.4, aqueous buffer, pH 7.4 Phosphate Buffer - Solubility, 200 mM Phosphate buffer pH 7.4) | solubility (pH 7.4, aqueous buffer) | solubility (pH 7.4)
CC[C@H](C)[C@H](NC(=O)[C@H](CCCNC(=N)N)NC(=O)[C@H](CC(=O)O)NC(=O)[C@H](CCCCNC(=O)CNC(=O)CNC(=O)CNC(=O)CNC(=O)CNC(=O)CCCCCCCCCCCCCCCCC(=O)O)NC(=O)[C@H](C)NC(=O)[C@@H](NC(=O)[C@H](CO)NC(=O)[C@H](Cc1ccc(O)cc1)NC(=O)[C@H](CC(=O)O)NC(=O)[C@H](CO)NC(=O)[C@@H](NC(=O)[C@H](Cc1ccccc1)NC(=O)[C@@H](NC(=O)CNC(=O)[C@H](CCC(=O)O)NC(=O)C(C)(C)NC(=O)[C@H](Cc1ccc(O)cc1)NC)[C@@H](C)O)[C@@H](C)CC)[C@@H](C)CC)C(=O)N[C@@H](C)C(=O)N[C@@H](CCC(N)=O)C(=O)N[C@@H](CCC(N)=O)C(=O)N[C@@H](CC(N)=O)C(=O)N[C@@H](Cc1ccccc1)C(=O)N[C@H](C(=O)N[C@@H](CC(N)=O)C(=O)N[C@@H](Cc1c[nH]c2ccccc12)C(=O)N[C@@H](CC(C)C)C(=O)N[C@@H](CC(C)C)C(=O)N[C@@H](C)C(=O)N[C@@H](CCC(N)=O)C(=O)N[C@@H](CO)C(=O)N1CCC[C@H]1C(=O)N[C@@H](CO)C(=O)N[C@@H](CO)C(=O)NCC(=O)N[C@@H](C)C(=O)N1CCC[C@H]1C(=O)N1CCC[C@H]1C(=O)N1CCC[C@H]1C(=O)N[C@@H](CO)C(=O)O)C(C)C [Compound 292] | < 6 mg/mL |  | 
CC[C@H](C)[C@H](NC(=O)[C@H](CCCNC(=N)N)NC(=O)[C@H](CC(=O)O)NC(=O)[C@H](CC(C)C)NC(=O)[C@H](C)NC(=O)[C@@H](NC(=O)[C@H](CO)NC(=O)[C@H](Cc1ccc(O)cc1)NC(=O)[C@H](CC(=O)O)NC(=O)[C@H](CO)NC(=O)[C@@H](NC(=O)[C@H](Cc1ccccc1)NC(=O)[C@@H](NC(=O)CNC(=O)[C@H](CCC(=O)O)NC(=O)C(C)(C)NC(=O)[C@H](Cc1ccc(O)cc1)NC)[C@@H](C)O)[C@@H](C)CC)[C@@H](C)CC)C(=O)N[C@@H](C)C(=O)N[C@@H](CCC(N)=O)C(=O)N[C@@H](CCC(N)=O)C(=O)N[C@@H](CCCCNC(=O)COCCOCCNC(=O)COCCOCCNC(=O)CC[C@H](NC(=O)CC[C@H](NC(=O)CCCCCCCCCCCCCCCCC(=O)O)C(=O)O)C(=O)O)C(=O)N[C@@H](Cc1ccccc1)C(=O)N[C@H](C(=O)N[C@@H](CC(N)=O)C(=O)N[C@@H](Cc1c[nH]c2ccccc12)C(=O)N[C@@H](CC(C)C)C(=O)N[C@@H](CC(C)C)C(=O)N[C@@H](C)C(=O)N[C@@H](CCC(N)=O)C(=O)N[C@@H](CCCNC(=N)N)C(=O)NCC(=O)O)C(C)C [Compound 286] (H-[NMeY][Aib]EGTFISDYSIALDRIAQQK([AEEA-AEEA-γGlu-γGlu-C18 diacid])FVNWLLAQRG-OH) |  | < 6 mg/mL | 
CC[C@H](C)[C@H](NC(=O)[C@H](Cc1ccccc1)NC(=O)[C@@H](NC(=O)CNC(=O)[C@H](CCC(=O)O)NC(=O)C(C)(C)NC(=O)[C@H](Cc1ccc(O)cc1)NC)[C@@H](C)O)C(=O)N[C@@H](CO)C(=O)N[C@@H](CC(=O)O)C(=O)N[C@@H](Cc1ccc(O)cc1)C(=O)N[C@@H](CO)C(=O)N[C@H](C(=O)NC(C)(C)C(=O)N[C@@H](CC(C)C)C(=O)N[C@@H](CC(=O)O)C(=O)N[C@@H](CCCNC(=N)N)C(=O)NC(C)(C)C(=O)N[C@@H](C)C(=O)N[C@@H](CCC(N)=O)C(=O)NC(C)(C)C(=O)N[C@@H](CC(=O)O)C(=O)N[C@@H](Cc1ccccc1)C(=O)N[C@H](C(=O)N[C@@H](CC(N)=O)C(=O)N[C@@H](Cc1c[nH]c2ccccc12)C(=O)N[C@@H](CC(C)C)C(=O)N[C@@H](CC(C)C)C(=O)N[C@@H](C)C(=O)N[C@@H](CCCCNC(=O)COCCOCCNC(=O)COCCOCCNC(=O)CC[C@H](NC(=O)CC[C@H](NC(=O)CCCCCCCCCCCCCCCCC(=O)O)C(=O)O)C(=O)O)C(=O)N[C@@H](CCCNC(=N)N)C(=O)NCC(=O)O)C(C)C)[C@@H](C)CC [Compound 62] (H-[NMeY][Aib]EGTFISDYSI[Aib]LDR[Aib]AQ[Aib]DFVNWLLAK([AEEA-AEEA-γGlu-γGlu-C18 diacid])RG-OH) |  | ≥ 30 mg/mL | ≥ 15 mg/mL
